Source: patent publication US20240180881A1, “METHODS FOR DECREASING RESISTANCE TO CHEMOTHERAPY” (National Institute of Immunology, priority 2022, published 2024)

Experiments:
HCT116 IC60 CPTR cells = assay: Soft agar assay; format: cell-based; details: 100 nM compound along with 120 nM of CPT
Description: Concentrations of CPT used: 0.140 nM, 20 nM, 50 nM, 1000 nM. Concentration of 1-OHP: 0.14 μM, 2 μM, 4 μM, 6 μM, 8 μM. Concentrations of CDDP used: 0.140 μM, 2 μM, 5 μM, 10 μM. The percentage of viable cells were determined by MTT assays (FIG. 12A-12C). The data in FIG. 12A and FIG. 12C is from three independent experiments and the data in FIG. 12B is from nine independent experiments. […] The levels of MRP2, MRP3, MRP5, MXR were quantitated from three independent experiments. […] Specifically, HCT116 IC60 CPTR cells were transfected with the HR substrate for 72 hours and the levels of HR was determined (FIG. 6A). The data is from three independent experiments. […] The number of soft agar colonies in each condition were counted. The data is from three independent experiments.
3000 cells mixed with 0.4% agar and seeded on top of the 6-well plates pre-coated with 0.8% agar. The resistant cells were treated with 120 nM of CPT. Post-incubation cells were seeded. […] The colonies were then counted after 15 days after staining with 0.25% Crystal Violet.

HCT116 IC60 CPTR tumors = assay: Xenograft model, camptothecin resistant cells; details: for tumor growth: CPT 1.25 mg/kg + compound 5 mg/kg intraperitoneally every 3 days, compared to CPT alone; for apoptosis in tumors, TUNEL positivity: dual treatment with CPT; for cell proliferation in tumors, Ki67 and PCNA levels: dual treatment with CPT/1-OHP
[1] = tested on: HCT116 IC60 1-OHPR tumors; assay: Xenograft model, oxaliplatin resistant cells; format: in vivo, NSG mice; details: 1-OHP 2 mg/kg + compound 5 mg/kg, compared to 1-OHP alone
Description: Tumors from different groups were excised at the end of the experiments. […] For these experiments, RNA and protein was isolated from tumors obtained at the end point of the xenograft experiment. RNA and the protein levels of MRP2 were determined by RT-qPCR and western blotting with anti-MRP2 antibody. For each group three tumor samples were analyzed (FIG. 6F, 6G). […] The levels of the indicated MDR genes were quantitated from three tumor samples from each group. Mean±S.D. (FIG. 13A). […] The experiment was repeated three times and one representative experiment has been shown (FIG. 13B).
In all cases tumor volume were measured at the indicated days post-injection using the following formula: Tumor volume=½(length×width2).

[2] = target: T1, BLM-RAD54 interaction (BLM F2 and N-RAD54 F1) (Homo sapiens, UniProt Q92698); assay: Renilla luciferase-based protein complementation assay (PCA); format: cell-based; details: disruption of BLM F2 / N-RAD54 F1 interaction, HEK293T cells, 1 nM to 100 μM; read-out: EC50
T1 construct: expressed in transfected cells; host or cells: HEK293T
T1 sequence (Q92698 1-212): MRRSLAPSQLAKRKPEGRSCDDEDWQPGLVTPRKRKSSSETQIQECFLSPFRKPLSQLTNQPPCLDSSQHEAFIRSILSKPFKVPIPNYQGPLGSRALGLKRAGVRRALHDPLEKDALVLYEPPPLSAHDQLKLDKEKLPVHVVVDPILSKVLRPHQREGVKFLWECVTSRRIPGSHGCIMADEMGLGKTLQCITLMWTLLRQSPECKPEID
Description: Specifically, N-RAD54-F1, C-RAD54-F1, BLM-F1 and BLM-F2 were transfected in HEK293T. Forty-eight hours post-transfection, Renilla luciferase-based PCA were carried out with the indicated combination of the expressed proteins. The experiment was repeated three times. Mean±S.D.
Using the Renilla luciferase-based protein complementation assay described earlier, 1280 FDA/EMA approved small molecules present in Prestwick chemical library were screened for their ability to disrupt BLM-RAD54 interaction. Each of the small molecules was incubated with HEK293T cells expressing BLM-F2 and N-RAD54-F1. Compared to cells expressing only BLM-F2 and N-RAD54-F1, the decrease in Renilla luciferase intensity in presence of each small molecule was monitored. Percentage disruption of the interaction between BLM F2 and N-RAD54 F1 was plotted in form of heatmap. The disruption of the BLM-RAD54 interaction was determined by a decrease in the Renilla luciferase activity as compared to control untreated cells.
The percentage disruption of the interaction between BLM F2 and N-RAD54 F1 was plotted as a non-linear regression line. The data was from three independent experiments.
Renilla Luciferase (Rlu) based Protein complementation assay was carried out as described in (Stefan et al., 2007). For preliminary screening of the Prestwick Chemical Library (containing 1280 FDA/EMA approved small molecules), HEK293T cells were seeded in the 6-well plates a day prior to the transfection. Next day the cells were transfected by 2 μg each of pcDNA3.1 N-RAD54 F1, pcDNA3.1 C-RAD54 F1, pcDNA3.1 BLM F1, pcDNA3.1 BLM F2 plasmids (alone or in different combinations) using Lipofectamine 2000 (according to the manufacturer's protocol). 36 hours post-transfection, approximately […] cells were seeded in a 96-well plate and incubated at 37° C. for 2 hour with or without 10 μM of the 1280 small molecules present in the library. 10 μM of Coenleterazine h was added into each well and Rluc activity was monitored for the first 10 seconds in Varioskan Microplate Reader (Thermo Fisher Scientific). The validation screen was performed with 17 small molecules at 100 μM, 10 μM, 1 μM, 100 nM, 10 nM and 1 nM concentrations. The percentage reduction in the protein-protein interaction was then calculated as compared to the control wells (without any small molecule).

SMILES	number of soft agar colonies (anchorage independent growth) (HCT116 IC60 CPTR cells)	tumor growth (HCT116 IC60 CPTR tumors)	apoptosis in tumors, TUNEL positivity (HCT116 IC60 CPTR tumors)	cell proliferation in tumors, Ki67 and PCNA levels (HCT116 IC60 CPTR tumors)	tumor growth [1]	EC50 [2] [nM]	RNA and protein levels of multiple MDR genes (including MRP2) in tumors (HCT116 IC60 CPTR tumors; co-treated with CPT 1.25 mg/kg and compound 5 mg/kg, end point)
CC(=O)Nc1nnc(S(N)(=O)=O)s1 [C3, Acetazolamide]	decreased anchorage independent cell growth	inhibited the tumor growth	increased apoptosis	Decreased cell proliferation	inhibited the tumor growth	4.2 ± 0.198	
CN1CCN(C2=Nc3ccccc3Oc3ccc(Cl)cc32)CC1.O=C(O)CCC(=O)O [C17, Loxapine succinate]	decreased anchorage independent cell growth	inhibited the tumor growth	increased apoptosis	Decreased cell proliferation	inhibited the tumor growth	22.9 ± 4.25	very significantly decreased
OCCN(CCO)c1nc(N2CCCCC2)c2nc(N(CCO)CCO)nc(N3CCCCC3)c2n1 [C7, Dipyridamole]	decreased anchorage independent cell growth	inhibited the tumor growth	increased apoptosis	Decreased cell proliferation	inhibited the tumor growth	6.16 ± 0.297	
